These results are taken from patent publication US20260193264A1, “BENZOYPARAZINE PYRAZINES AND THEIR USES” (FOGHORN THERAPEUTICS INC., priority 2022, published 2026).

SMILES strings stand for the structures.

The target of experiment [1] is T1, HiBiT-BRM fusion protein in stable HeLa cell line (Homo sapiens, UniProt P51531).
T1 construct: expressed in transfected cells
As to the kind of experiment: HiBiT-BRM cell-based degradation assay (Nano-Glo HiBiT Lytic Detection, 24 h). More on the design: DC50: scale not given here. To be noted: HeLa HiBiT-BRM cells; for DC50: read-out: BRM HiBit Degradation IC50; for BRM HiBit Degradation Maximum (%): top dose 30 μM. In a few lines: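 Luminescence from HiBiT/LgBiT complementation after lysis reports remaining HiBiT-BRM in stable HeLa cells exposed to compound for 24 h. Dosing used 3-fold serial dilutions, 10 points, 30 μM top final concentration. DMSO and a 2 μM BRM/BRG1 degrader standard defined 0% and 100% degradation.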
Background: With HiBiT, luminescence reflects the tagged protein that the partner subunit can reach.

The target of experiment [2] is T2, HiBit-BRG1 fusion protein in stable HeLa cell line expressing HiBit-BRG1 and LgBit (Homo sapiens, UniProt P51532).
T2 construct: expressed in transfected cells
T2 sequence (P51532 whole entry, the tested form may be a part): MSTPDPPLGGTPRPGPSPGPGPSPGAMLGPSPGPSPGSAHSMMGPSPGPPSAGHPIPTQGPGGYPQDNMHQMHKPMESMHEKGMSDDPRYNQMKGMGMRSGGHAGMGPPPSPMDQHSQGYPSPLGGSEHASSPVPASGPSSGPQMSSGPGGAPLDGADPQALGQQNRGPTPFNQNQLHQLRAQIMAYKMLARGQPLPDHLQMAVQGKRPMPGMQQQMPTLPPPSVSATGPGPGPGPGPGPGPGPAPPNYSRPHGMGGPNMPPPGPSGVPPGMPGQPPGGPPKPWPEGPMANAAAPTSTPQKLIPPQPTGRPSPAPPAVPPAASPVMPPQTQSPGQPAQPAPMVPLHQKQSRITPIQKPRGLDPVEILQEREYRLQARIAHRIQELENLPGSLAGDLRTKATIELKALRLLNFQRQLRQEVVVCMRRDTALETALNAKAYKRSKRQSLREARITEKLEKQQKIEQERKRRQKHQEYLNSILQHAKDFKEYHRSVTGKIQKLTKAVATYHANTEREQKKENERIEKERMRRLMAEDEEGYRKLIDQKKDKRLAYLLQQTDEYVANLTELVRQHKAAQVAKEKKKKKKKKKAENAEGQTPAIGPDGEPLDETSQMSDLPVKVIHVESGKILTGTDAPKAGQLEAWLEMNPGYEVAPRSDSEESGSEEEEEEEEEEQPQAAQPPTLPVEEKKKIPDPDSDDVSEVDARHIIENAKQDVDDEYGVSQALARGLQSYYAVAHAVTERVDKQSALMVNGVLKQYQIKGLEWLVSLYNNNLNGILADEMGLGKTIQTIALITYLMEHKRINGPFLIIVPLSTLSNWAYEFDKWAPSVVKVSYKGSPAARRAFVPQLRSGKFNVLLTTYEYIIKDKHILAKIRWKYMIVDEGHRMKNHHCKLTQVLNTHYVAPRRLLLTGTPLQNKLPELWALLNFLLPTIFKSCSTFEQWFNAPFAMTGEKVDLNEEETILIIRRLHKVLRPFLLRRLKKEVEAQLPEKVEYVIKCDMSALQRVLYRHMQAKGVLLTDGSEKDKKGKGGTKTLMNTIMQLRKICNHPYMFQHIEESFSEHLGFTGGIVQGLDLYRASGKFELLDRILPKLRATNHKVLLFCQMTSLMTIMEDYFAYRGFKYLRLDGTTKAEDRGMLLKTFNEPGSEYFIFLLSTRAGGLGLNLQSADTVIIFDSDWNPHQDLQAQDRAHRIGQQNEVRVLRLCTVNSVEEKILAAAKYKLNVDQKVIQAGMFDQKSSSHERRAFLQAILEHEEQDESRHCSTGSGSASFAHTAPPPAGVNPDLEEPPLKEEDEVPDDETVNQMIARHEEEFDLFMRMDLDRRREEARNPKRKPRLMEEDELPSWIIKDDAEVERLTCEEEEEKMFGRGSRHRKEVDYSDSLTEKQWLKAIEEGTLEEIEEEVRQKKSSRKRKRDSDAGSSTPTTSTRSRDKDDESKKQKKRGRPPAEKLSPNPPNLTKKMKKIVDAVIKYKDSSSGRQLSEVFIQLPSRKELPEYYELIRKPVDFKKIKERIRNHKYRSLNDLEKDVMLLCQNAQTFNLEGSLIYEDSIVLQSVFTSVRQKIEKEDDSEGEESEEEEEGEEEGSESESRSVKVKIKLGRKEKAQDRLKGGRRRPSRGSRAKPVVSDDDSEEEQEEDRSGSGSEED
Kind of experiment: HiBiT-BRG1 cell-based degradation assay (Nano-Glo HiBiT, 24 h). To be noted: HeLa HiBit-BRG1/LgBit cells; for Dmax: top dose 30 μM, read-out: BRG1 HiBit Degradation Maximum (%); for DC50: read-out: BRMG1 HiBit Degradation IC50. In a few lines: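 Stable HeLa line co-expressing HiBiT-BRG1 and LgBiT, compound-treated 24 h; luminescence read after Nano-Glo HiBiT lytic reagent. % degradation normalised between DMSO (high control) and 2 μM reference BRM/BRG1 degrader (low control).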

T1 sequence (P51531 whole entry, the tested form may be a part): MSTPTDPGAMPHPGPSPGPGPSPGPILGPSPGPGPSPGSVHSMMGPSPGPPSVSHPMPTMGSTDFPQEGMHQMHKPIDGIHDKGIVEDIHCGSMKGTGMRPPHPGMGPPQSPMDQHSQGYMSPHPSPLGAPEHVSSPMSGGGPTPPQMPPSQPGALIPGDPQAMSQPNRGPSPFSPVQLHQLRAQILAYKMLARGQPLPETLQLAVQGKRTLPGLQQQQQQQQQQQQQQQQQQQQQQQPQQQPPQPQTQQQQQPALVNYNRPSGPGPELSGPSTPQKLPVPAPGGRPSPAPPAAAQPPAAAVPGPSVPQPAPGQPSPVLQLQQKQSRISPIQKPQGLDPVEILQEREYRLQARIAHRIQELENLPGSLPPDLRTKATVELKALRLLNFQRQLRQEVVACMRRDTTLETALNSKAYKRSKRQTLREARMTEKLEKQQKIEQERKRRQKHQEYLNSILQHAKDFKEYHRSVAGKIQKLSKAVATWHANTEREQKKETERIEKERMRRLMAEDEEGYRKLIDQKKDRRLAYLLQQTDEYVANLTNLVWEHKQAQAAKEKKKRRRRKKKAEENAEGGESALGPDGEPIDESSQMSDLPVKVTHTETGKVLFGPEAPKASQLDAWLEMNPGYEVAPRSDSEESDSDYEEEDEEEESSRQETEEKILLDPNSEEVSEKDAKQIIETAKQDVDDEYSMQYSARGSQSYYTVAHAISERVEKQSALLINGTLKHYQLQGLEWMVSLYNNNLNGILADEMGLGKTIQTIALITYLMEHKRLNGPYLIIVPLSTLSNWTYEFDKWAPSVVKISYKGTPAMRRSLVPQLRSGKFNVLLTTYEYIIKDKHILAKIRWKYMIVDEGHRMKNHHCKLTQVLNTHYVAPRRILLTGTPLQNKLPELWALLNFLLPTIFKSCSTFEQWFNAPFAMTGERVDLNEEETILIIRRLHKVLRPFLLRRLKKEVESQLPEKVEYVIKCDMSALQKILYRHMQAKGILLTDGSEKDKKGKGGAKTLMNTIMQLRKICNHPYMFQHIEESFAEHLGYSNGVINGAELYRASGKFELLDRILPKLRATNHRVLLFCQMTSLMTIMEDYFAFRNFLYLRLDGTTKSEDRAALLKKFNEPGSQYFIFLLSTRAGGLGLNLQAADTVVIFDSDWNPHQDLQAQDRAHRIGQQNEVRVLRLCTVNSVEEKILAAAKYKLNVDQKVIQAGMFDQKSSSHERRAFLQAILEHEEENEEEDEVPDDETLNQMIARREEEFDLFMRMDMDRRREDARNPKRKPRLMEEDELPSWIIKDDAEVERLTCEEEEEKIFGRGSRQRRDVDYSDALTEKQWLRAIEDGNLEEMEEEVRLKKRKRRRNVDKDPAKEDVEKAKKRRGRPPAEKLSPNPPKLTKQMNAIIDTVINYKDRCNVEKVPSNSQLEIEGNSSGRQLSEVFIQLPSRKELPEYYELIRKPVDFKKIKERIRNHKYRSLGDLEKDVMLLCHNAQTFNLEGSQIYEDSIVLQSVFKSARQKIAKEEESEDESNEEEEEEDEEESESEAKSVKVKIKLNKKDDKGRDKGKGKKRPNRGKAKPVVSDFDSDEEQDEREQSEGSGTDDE

`C#Cc1ccc(CNC(=O)[C@@H]2C[C@@H](O)CN2C(=O)[C@H](C(C)C)n2cc(N3CC4(CN(c5ccc6cc(-c7ccccc7O)nnc6c5)C4)C3)nn2)c(OC)c1` [Compound 238, (2S,4R)-N-(4-ethynyl-2-methoxybenzyl)-4-hydroxy-1-((S)-2-(4-(6-(3-(2-hydroxyphenyl)cinnolin-7-yl)-2,6-diazaspiro[3.3]heptan-2-yl)-1H-1,2,3-triazol-1-yl)-3-methylbutanoyl)pyrrolidine-2-carboxamide]: in experiment [1], the DC50 is below 10 nM and the “BRM HiBit Degradation Maximum (%)” value was “A (“A” indicates maximum degradation ≥75%)”. The Dmax in experiment [2] was below 50%.

Regarding `CNC(=O)[C@@H]1C[C@@H](O)CN1C(=O)[C@@H](c1cc(N2CC3(C2)CN(c2cc4nnc(-c5ccccc5O)cc4cc2OC)C3)no1)C(C)C` [Compound 209, (2S,4R)-4-hydroxy-1-((R)-2-(3-(6-(3-(2-hydroxyphenyl)-6-methoxycinnolin-7-yl)-2,6-diazaspiro[3.3]heptan-2-yl)isoxazol-5-yl)-3-methylbutanoyl)-N-methylpyrrolidine-2-carboxamide], in experiment [1], the DC50 is below 10 nM and the “BRM HiBit Degradation Maximum (%)” value is recorded as “A (“A” indicates maximum degradation ≥75%)”. In experiment [2], the Dmax is below 50%.

Take `Cc1ncsc1-c1ccc([C@H](C)NC(=O)[C@@H]2C[C@@H](O)CN2C(=O)[C@H](c2cc(-c3cnc(N4CC[C@H](c5ccc6cc(-c7ccccc7O)nnc6c5)C4)nc3)no2)C(C)C)cc1` [Compound 21]: the “BRM HiBit Degradation Maximum (%)” value in experiment [1] is “C (“C” indicates maximum degradation <50%)”. In addition, the Dmax in experiment [2] is below 50%.

For the compound `Cc1ncsc1-c1ccc([C@H](C)NC(=O)[C@@H]2C[C@@H](O)CN2C(=O)[C@@H](c2cc(-c3cnc(N4CC(c5cc6cc(-c7ccccc7O)nnc6cc5C5CC5)C4)nc3)no2)C(C)C)cc1` [Compound 79, (2S,4R)-1-((R)-2-(3-(2-(3-(7-cyclopropyl-3-(2-hydroxyphenyl)cinnolin-6-yl)azetidin-1-yl)pyrimidin-5-yl)isoxazol-5-yl)-3-methylbutanoyl)-4-hydroxy-N-((S)-1-(4-(4-methylthiazol-5-yl)phenyl)ethyl)pyrrolidine-2-carboxamide], in experiment [1], the DC50 was below 10 nM and the “BRM HiBit Degradation Maximum (%)” value is on record as “A (“A” indicates maximum degradation ≥75%)”. Moreover, in experiment [2], the DC50 is below 10 nM and the Dmax was above 75%.

Regarding `Cc1ncsc1-c1ccc([C@H](C)NC(=O)[C@@H]2C[C@@H](O)CN2C(=O)[C@H](c2cc(-c3cnc(N4CC(c5cc6cc(-c7ccccc7O)nnc6cc5Cl)C4)nc3)no2)C(C)C)cc1` [Compound 29], in experiment [1], the DC50 was above 100 nM and the “BRM HiBit Degradation Maximum (%)” value was “A (“A” indicates maximum degradation ≥75%)”. In addition, in experiment [2], the Dmax was below 50%.

With `CC(C)C(C(=O)N1C[C@H](O)C[C@H]1C(=O)N[C@@H](C)c1ccc(Cl)cc1)c1cc(N2CC3(CN(c4ccc5cc(-c6ccccc6O)nnc5c4)C3)C2)no1` (stereo partly drawn) [Compound 113, (2S,4R)-N-((S)-1-(4-chlorophenyl)ethyl)-4-hydroxy-1-(2-(3-(6-(3-(2-hydroxyphenyl)cinnolin-7-yl)-2,6-diazaspiro[3.3]heptan-2-yl)isoxazol-5-yl)-3-methylbutanoyl)pyrrolidine-2-carboxamide], in experiment [1], the DC50 is below 10 nM and the “BRM HiBit Degradation Maximum (%)” value was “A (“A” indicates maximum degradation ≥75%)”. The Dmax in experiment [2] was below 50%.

`Cc1ncsc1-c1ccc([C@H](C)NC(=O)[C@@H]2C[C@@H](O)CN2C(=O)[C@@H](c2cc(-c3cnc(N4CC(c5ccc6nnc(-c7ccccc7O)cc6c5)C4)nc3)no2)C(C)C)cc1` [Compound 4, (2S,4R)-4-hydroxy-1-[(2R)-2-[3-(2-{3-[3-(2-hydroxyphenyl)cinnolin-6-yl]azetidin-1-yl}pyrimidin-5-yl)-1,2-oxazol-5-yl]-3-methylbutanoyl]-N-[(1S)-1-[4-(4-methyl-1,3-thiazol-5-yl)phenyl]ethyl]pyrrolidine-2-carboxamide]: in experiment [1], the DC50 is below 10 nM and the “BRM HiBit Degradation Maximum (%)” value is “A (“A” indicates maximum degradation ≥75%)”. In experiment [2], the DC50 is above 10 nM and the Dmax was above 75%.

As to `Cc1ncsc1-c1ccc([C@H](C)NC(=O)[C@@H]2C[C@@H](O)CN2C(=O)[C@@H](c2cc(-c3cnc(N4CCC(c5ccc6nnc(-c7ccccc7O)cc6c5)CC4)nc3)no2)C(C)C)cc1` [Compound 42], in experiment [1], the DC50 is above 10 nM and the “BRM HiBit Degradation Maximum (%)” value is recorded as “A (“A” indicates maximum degradation ≥75%)”. The Dmax in experiment [2] was below 50%.

Take `Cc1ncsc1-c1ccc([C@H](C)NC(=O)[C@@H]2C[C@@H](O)CN2C(=O)[C@H](c2cc(N3CC4(CC(c5ccc6cc(-c7ccccc7O)nnc6c5)C4)C3)no2)C(C)C)cc1` [Compound 33]: in experiment [1], the DC50 is above 100 nM and the “BRM HiBit Degradation Maximum (%)” value is “A (“A” indicates maximum degradation ≥75%)”. Besides, the Dmax in experiment [2] was below 50%.

For the compound `Cc1ncsc1-c1ccc([C@H](C)NC(=O)[C@@H]2C[C@@H](O)CN2C(=O)[C@H](c2cc(-c3cnc(N4CC[C@@H](c5ccc6cc(-c7ccccc7O)nnc6c5)C4)nc3)no2)C(C)C)cc1` [Compound 19], in experiment [1], the DC50 is above 100 nM and the “BRM HiBit Degradation Maximum (%)” value is reported as “B (“B” indicates maximum degradation ≥50%)”. In addition, in experiment [2], the Dmax is below 50%.

In the case of `CC(C)[C@@H](C(=O)N1C[C@H](O)C[C@H]1C(=O)N[C@@H](C)c1ccccc1F)c1cc(N2CC3(CN(c4ccc5cc(-c6ccccc6O)nnc5c4)C3)C2)no1` [Compound 110, (2S,4R)-N-((S)-1-(2-fluorophenyl)ethyl)-4-hydroxy-1-((R)-2-(3-(6-(3-(2-hydroxyphenyl)cinnolin-7-yl)-2,6-diazaspiro[3.3]heptan-2-yl)isoxazol-5-yl)-3-methylbutanoyl)pyrrolidine-2-carboxamide], in experiment [1], the DC50 is below 10 nM and the “BRM HiBit Degradation Maximum (%)” value is on record as “A (“A” indicates maximum degradation ≥75%)”. Moreover, in experiment [2], the Dmax was below 50%.

As for `Cc1ncsc1-c1ccc([C@H](C)NC(=O)[C@@H]2C[C@@H](O)CN2C(=O)[C@@H](c2cc(N3CCC4(CC3)CN(c3ccc5nnc(-c6ccccc6O)cc5c3)CCN4C)no2)C(C)C)cc1` [Compound 165, (2S,4R)-4-hydroxy-1-((R)-2-(3-(4-(3-(2-hydroxyphenyl)cinnolin-6-yl)-1-methyl-1,4,9-triazaspiro[5.5]undecan-9-yl)isoxazol-5-yl)-3-methylbutanoyl)-N-((S)-1-(4-(4-methylthiazol-5-yl)phenyl)ethyl)pyrrolidine-2-carboxamide], in experiment [1], the DC50 is below 10 nM and the “BRM HiBit Degradation Maximum (%)” value is “A (“A” indicates maximum degradation ≥75%)”. Moreover, in experiment [2], the DC50 was below 10 nM and the Dmax was above 75%.

Regarding `Cc1ncsc1-c1ccc([C@H](C)NC(=O)[C@@H]2C[C@@H](O)CN2C(=O)[C@@H](c2cc(N3C[C@]4(C)CN(c5ccc6nnc(-c7ccccc7O)cc6c5)C[C@]4(C)C3)no2)C(C)C)cc1` [Compound 188, (2S,4R)-4-hydroxy-1-((R)-2-(3-((3aR,6aS)-5-(3-(2-hydroxyphenyl)cinnolin-6-yl)-3a,6a-dimethylhexahydropyrrolo[3,4-c]pyrrol-2(1H)-yl)isoxazol-5-yl)-3-methylbutanoyl)-N-((S)-1-(4-(4-methylthiazol-5-yl)phenyl)ethyl)pyrrolidine-2-carboxamide], in experiment [1], the DC50 is above 10 nM and the “BRM HiBit Degradation Maximum (%)” value is recorded as “A (“A” indicates maximum degradation ≥75%)”. Besides, in experiment [2], the DC50 is above 10 nM and the Dmax was above 75%.

Regarding `Cc1ncsc1-c1ccc([C@H](C)NC(=O)[C@@H]2C[C@@H](O)CN2C(=O)[C@@H](c2cc(N3CC4(C3)CN(c3cc5cc(-c6ccccc6O)nnc5cc3C(F)F)C4)no2)C(C)C)cc1` [Compound 164, (2S,4R)-1-((R)-2-(3-(6-(7-(difluoromethyl)-3-(2-hydroxyphenyl)cinnolin-6-yl)-2,6-diazaspiro[3.3]heptan-2-yl)isoxazol-5-yl)-3-methylbutanoyl)-4-hydroxy-N-((S)-1-(4-(4-methylthiazol-5-yl)phenyl)ethyl)pyrrolidine-2-carboxamide], in experiment [1], the DC50 was below 10 nM and the “BRM HiBit Degradation Maximum (%)” value is “A (“A” indicates maximum degradation ≥75%)”. Further, in experiment [2], the DC50 is below 10 nM and the Dmax was above 75%.

On to `Cc1ncsc1-c1ccc([C@H](C)NC(=O)[C@@H]2C[C@@H](O)CN2C(=O)C(c2cc(N3C[C@@H]4CN(c5ccc6cc(-c7ccccc7O)nnc6c5)C[C@H]4C3)no2)C(C)C)cc1` (stereo partly drawn) [Compound 226, (2S,4R)-4-hydroxy-1-(2-(3-((3aS,6aS)-5-(3-(2-hydroxyphenyl)cinnolin-7-yl)hexahydropyrrolo[3,4-c]pyrrol-2(1H)-yl)isoxazol-5-yl)-3-methylbutanoyl)-N-((S)-1-(4-(4-methylthiazol-5-yl)phenyl)ethyl)pyrrolidine-2-carboxamide], for which, in experiment [1], the DC50 was above 10 nM and the “BRM HiBit Degradation Maximum (%)” value is recorded as “A (“A” indicates maximum degradation ≥75%)”. Besides, the Dmax in experiment [2] is below 50%.
